Measured values published in article PMC4188015 (Acta Crystallographica Section D: Biological Crystallography, 2014).
Like-named read-outs stand apart in the source and are kept apart here.

Key:
IR site 2 = settings: ref Kiselyov et al., 2009; read-out: K d, IR low-affinity site 2; cited from earlier work
Source text: (§1) Extensive mutagenesis and cross-linking studies of both insulin and IR led to the discovery and mapping of two sites on the IR that are responsible for engaging with the hormone. […] The hormone–receptor interaction events are comp ...

[1] = ITC; n = 8; ref Antolikova et al. (2011); listed as wild-type human insulin; read-out: K diss (dimer↔monomer); cited from earlier work
IR-B = settings: single mutation; ref Glendorf et al. (2011); cited from earlier work
Source text: The IR-B:IR-A specificity ratio of insulin analogues is of considerable interest owing to IR-B being the dominant (∼90–95%) receptor isoform in the liver (Moller et al., 1989[▶]). This, together with the anatomic proximity of the pancreas and the liver (short hepatic portal vein connectivity), makes the liver the major glucose homeostatic organ.

IR = settings: ref Žáková et al., 2013; cited from earlier work
Source text: The full-length insulin B26-site mutants AsnB26, AspB26, PheB26, GlnB26 and GlyB26 have been prepared and characterized. […] In the cases of [PheB26]-insulin and [GlyB26]-insulin, we aimed to investigate the structural consequences of the loss of the TyrB26 side-chain hydroxyl group or the whole TyrB26 side chain, respectively. The affinities of the analogues for the IR-A isoform (IM-9 lymphocytes) and of selected ...

[2] = test system: both rat IR-A and IR-B isoforms; experiment: Receptor binding, rat adipocyte plasma membranes
Method: Receptor-binding studies with the insulin receptor in plasma membranes containing both rat IR-A and IR-B isoforms prepared from epididymal adipose tissue of adult male Wistar rats were performed and analyzed according to Žáková et al. (2008[▶]). Binding data were analyzed using GraphPad Prism 5. Half-maximal inhibition values of binding of [^125I]-insulin to the receptor (IC50) were obtained using a nonlinear regression method and a one-site fitting program.

[3] = test system: both rat IR-A and IR-B isoforms; settings: rat adipocytes, ref Jiracek et al. (2010), cited from earlier work
Source text: In the cases of [PheB26]-insulin and [GlyB26]-insulin, we aimed to investigate the structural consequences of the loss of the TyrB26 side-chain hydroxyl group or the whole TyrB26 side chain, respectively. The affinities of the analogues for the IR-A isoform (IM-9 lymphocytes) and of selected ...

[4] = Isothermal microcalorimetry (ITC) of dimerization (dimer-monomer dissociation); assay type: physicochemical; settings: mean ± spread, n = 3, read-out: K diss (dimer↔monomer)
Method: Investigations of the dimerization abilities of selected insulin analogues were performed as described in detail previously (Antolikova et al., 2011[▶]).

IR-A = settings: ref Morcavallo et al., 2012; read-out: K d for IR-A; cited from earlier work
Source text: as §1

Substance: Human insulin
- Kd (IR site 2): ~400 nM
- Kd [1]: ~9000 nM

Substance: [AsnB25]-insulin
- IR-B specificity (IR-B): doubling of the IR-B specificity

Substance: [GluB26,LysB28,ProB29]-insulin
- binding affinity relative to human insulin (IR): 193%

Substance: [GlyB26]-insulin
- Potency (relative receptor-binding affinity), rat IR-A and IR-B ([2]; (IC50 of human insulin/IC50 of analogue) × 100, rat adipocytes): ~70%
- IC50 ([2]; half-maximal inhibition of binding of human 125I-TyrA14 insulin, rat adipose plasma membranes, mean ± SE (n), SEM, read-out: IC50 ± SE for both rat IR-A and IR-B in rat adipocytes): 1.16 ± 0.12 nM

Substance: [PheB26]-insulin
- Potency (relative receptor-binding affinity), rat IR-A and IR-B [3]: 46 ^¶ %
- Potency (relative receptor-binding affinity), rat IR-A and IR-B ([3]; listed as PheB26): less than 50%
- Kd [4]: 27200 ± 7400 nM

Substance: insulin-like growth factor II [IGF-II]
- Kd (IR-A): ~4 nM
